Experimental data published in US8952024B2, “Herbicidal pyrimidone derivatives” (E I du Pont de Nemours and Company, priority 2009, dated 2015).

Columns and labels:
Format in all cases: in vivo
[1] = test system: blackgrass (Alopecurus myosuroides); assay: Test B pre-/postemergence plant response
How it was run: (§1)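 Greenhouse herbicide screen. Pre- and postemergence (1- to 4-leaf) spray of compound in solvent/surfactant mixture; loam–sand soil for pre, peat/vermiculite medium for post. Visual control rating 0–100 at 13 to 15 days after treatment.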

[2] = test system: Italian ryegrass (Lolium multiflorum); assay: Test B pre-/postemergence plant response
How it was run: as §1

[3] = test system: morningglory (Ipomoea coccinea); assay: Test B pre-/postemergence plant response
How it was run: as §1

[4] = test system: velvetleaf (Abutilon theophrasti); assay: Test B pre-/postemergence plant response
How it was run: as §1

[5] = test system: giant foxtail (Setaria faberii); assay: Test B pre-/postemergence plant response
How it was run: as §1

[6] = test system: ragweed (common ragweed, Ambrosia elatior); assay: Test B pre-/postemergence plant response
How it was run: as §1

[7] = test system: green foxtail (Setaria viridis); assay: Test B pre-/postemergence plant response
How it was run: as §1

[8] = test system: wheat (Triticum aestivum); assay: Test B pre-/postemergence plant response
How it was run: as §1

[9] = test system: bermudagrass (Cynodon dactylon); assay: Test B pre-/postemergence plant response
How it was run: as §1

[10] = test system: pigweed (Amaranthus retroflexus); assay: Test B pre-/postemergence plant response
How it was run: as §1

[11] = test system: downy bromegrass (Bromus tectorum); assay: Test B pre-/postemergence plant response
How it was run: as §1

[12] = test system: johnsongrass (Sorghum halepense); assay: Test B pre-/postemergence plant response
How it was run: as §1

[13] = test system: goosegrass (Eleusine indica); assay: Test B pre-/postemergence plant response
How it was run: as §1

[14] = test system: corn (Zea mays); assay: Test B pre-/postemergence plant response
How it was run: as §1

[15] = test system: soybean (Glycine max); assay: Test B pre-/postemergence plant response
How it was run: as §1

[16] = test system: winter barley (Hordeum vulgare); assay: Test B postemergence plant response
How it was run: (§2)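 Visual ratings from 0 (no effect) to 100 (complete control), made against controls 13–15 days after treatment, kept in a greenhouse. Compounds were applied postemergence to potted plants at the 1- to 4-leaf stage (2–18 cm).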

[17] = test system: canarygrass (Phalaris minor); assay: Test B postemergence plant response
How it was run: as §2

[18] = test system: chickweed (Stellaria media); assay: Test B postemergence plant response
How it was run: as §2

[19] = 31 g ai/ha, postemergence, scale 0 to 100, 0 is no effect, 100 is complete control
[20] = 62 g ai/ha, postemergence, 0 is no effect, 100 is complete control, 13 to 15 days
[21] = Postemergence, 125 g ai/ha, visual rating after 13 to 15 days, scale 0 (no effect) to 100 (complete control)
[22] = Postemergence, 250 g ai/ha, scale 0 to 100 (0 no effect, 100 complete control)

With `CCOCCn1c(-c2ccccc2)ncc(C(=O)C2=C(O)CCCC2=O)c1=O` [Compound 96] the “Plant response rating, Blackgrass” value [1, 19] was 5, the “Blackgrass plant response rating (0 to 100 scale)” value [1, 20] was 20 and the “Plant response rating, Blackgrass” value [1, 21] was 30. The “Plant response rating, Blackgrass” value [1, 22] was 40, the “Plant response rating, Ryegrass, Italian” value [2, 19] was 0 and the “Ryegrass, Italian plant response rating (0 to 100 scale)” value [2, 20] was 5. For the same compound, the “Plant response rating, Ryegrass, Italian” value [2, 22] was 10, the “Plant response rating, Morningglory” value [3, 19] was 65 and the “Morningglory plant response rating (0 to 100 scale)” value [3, 20] was 95. For the same compound, the “Plant response rating, Morningglory” value [3, 22] was 100, the “Plant response rating, Velvetleaf” value [4, 19] was 95 and the “Velvetleaf plant response rating (0 to 100 scale)” value [4, 20] was 98. For the same compound, the “Plant response rating, Velvetleaf” value [4, 22] was 100, the “Plant response rating, Foxtail, Giant” value [5, 19] was 65 and the “Foxtail, Giant plant response rating (0 to 100 scale)” value [5, 20] was 70. The “Plant response rating, Foxtail, Giant” value [5, 22] was 85, the “Plant response rating, Ragweed” value [6, 19] was 80 and the “Ragweed plant response rating (0 to 100 scale)” value [6, 20] was 80. The “Plant response rating, Ragweed” value [6, 22] was 95, the “Plant response rating, Foxtail, Green” value [7, 19] was 50 and the “Foxtail, Green plant response rating (0 to 100 scale)” value [7, 20] was 65. The “Plant response rating, Foxtail, Green” value [7, 22] was 85, the “Plant response rating, Wheat” value [8, 19] was 0 and the “Wheat plant response rating (0 to 100 scale)” value [8, 20] was 5. For the same compound, the “Plant response rating, Wheat” value [8, 22] was 15, the “Plant response rating, Bermudagrass” value [9, 19] was 80 and the “Bermudagrass plant response rating (0 to 100 scale)” value [9, 20] was 95. The “Plant response rating, Bermudagrass” value [9, 21] was 95, the “Plant response rating, Bermudagrass” value [9, 22] was 98 and the “Plant response rating, Pigweed” value [10, 19] was 90. The “Pigweed plant response rating (0 to 100 scale)” value [10, 20] was 95, the “Plant response rating, Pigweed” value [10, 22] was 100 and the “Plant response rating, Bromegrass, Downy” value [11, 19] was 0. The “Bromegrass, Downy plant response rating (0 to 100 scale)” value [11, 20] was 0, the “Plant response rating, Bromegrass, Downy” value [11, 21] was 5 and the “Plant response rating, Bromegrass, Downy” value [11, 22] was 10. For the same compound, the “Plant response rating, Johnsongrass” value [12, 19] was 20, the “Johnsongrass plant response rating (0 to 100 scale)” value [12, 20] was 45 and the “Plant response rating, Johnsongrass” value [12, 22] was 80. For the same compound, the “Plant response rating, Goosegrass” value [13, 19] was 70, the “Goosegrass plant response rating (0 to 100 scale)” value [13, 20] was 70 and the “Plant response rating, Goosegrass” value [13, 22] was 85. For the same compound, the “Plant response rating, Corn” value [14, 19] was 45, the “Corn plant response rating (0 to 100 scale)” value [14, 20] was 60 and the “Plant response rating, Corn” value [14, 21] was 65. For the same compound, the “Plant response rating, Corn” value [14, 22] was 80, the “Plant response rating, Soybean” value [15, 19] was 65 and the “Soybean plant response rating (0 to 100 scale)” value [15, 20] was 75. The “Plant response rating, Soybean” value [15, 22] was 98, the “Plant response rating, Barley” value [16, 19] was 0 and the “Barley plant response rating (0 to 100 scale)” value [16, 20] was 0. The “Plant response rating, Barley” value [16, 21] was 0, the “Plant response rating, Barley” value [16, 22] was 5 and the “Plant response rating, Canarygrass” value [17, 19] was 0. The “Canarygrass plant response rating (0 to 100 scale)” value [17, 20] was 5, the “Plant response rating, Canarygrass” value [17, 21] was 30 and the “Plant response rating, Canarygrass” value [17, 22] was 45. The “Plant response rating, Chickweed” value [18, 19] was 75, the “Chickweed plant response rating (0 to 100 scale)” value [18, 20] was 95 and the “Plant response rating, Chickweed” value [18, 21] was 98. The “Plant response rating, Chickweed” value [18, 22] was 100.
